# From patent US11332477B2, “Nitrogen containing heterocycle substituted benzoxazine oxazolidinone compound and preparation method and use thereof” (INSTITUTE OF MATERIA MEDICA, CHINESE ACADEMY OF MEDICAL …, priority 2017, dated 2022)
# Read-outs that look alike come from different tables or passages of the source.
# How the values were obtained:
# Vero cells = experiment: Cytotoxicity test (MTT); assay type: cell-based; settings: Chlorocebus sabaeus
# [1] = system: Mycobacterium tuberculosis H37Rv; experiment: Anti-tuberculosis activity test in vitro (Microplate Alamar Blue Assay, MABA); assay type: cell-based
# [2] = Vero cells, MTT, 48 hours of incubation, highest concentration 64 μg/mL, read-out: IC50
# [3] = M. tuberculosis H37Rv, MABA, 7H9 medium, method says MIC90 was calculated, read-out: MIC
Structure (SMILES),melting point [°C],IC50 (Vero cells; [2]) [µg/mL],MIC ([1]; H37RV) [µg/mL],"IC50 (Vero cells; Vero, 48 h) [µg/mL]","MIC [1, 3] [µg/mL]"
O=C(NC[C@@H]1OC(=O)N2c3cc(F)c(N4C5CCC4CSC5)cc3OC[C@@H]12)c1cnccn1,> 250,,,,
"CNC[C@@H]1OC(=O)N2c3cc(F)c(N4CCSCC4)cc3OC[C@@H]12 [Compound 2, (3S,3aS)-8-Fluoro-3-((methylamino)methyl)-7-thiomorpholino-3a,4-dihydro-1H,3H-benzo[b]oxazolo[3,4-d][1,4]oxazin-1-one]",155 to 156,46.5,,,
"CS(=O)(=O)NC[C@@H]1OC(=O)N2c3cc(F)c(N4CCSCC4)cc3OC[C@@H]12 [Compound 3, N-(((3S,3aS)-8-Fluoro-1-oxo-7-thiomorpholino-3a,4-dihydro-1H,3H-benzo[b]oxazolo[3,4-d][1,4]oxazin-3-yl)methyl)methanesulfonamide]",234 to 235,> 64,,,
"NC[C@@H]1OC(=O)N2c3cc(F)c(N4[C@@H]5CC[C@H]4CSC5)cc3OC[C@@H]12 [Compound 13, (3S,3aS)-3-(Aminomethyl)-7-((1R,5S)-3-thia-8-azabicyclo[3.2.1]octan-8-yl)-8-fluoro-3a,4-dihydro-1H,3H-benzo[b]oxazolo[3,4-d][1,4]oxazin-1-one]",168 to 169,,0.609,,
"CC(=O)NC[C@@H]1OC(=O)N2c3cc(F)c(N4[C@@H]5CC[C@H]4CSC5)cc3OC[C@@H]12 [Compound 14, N-(((3S,3aS)-7-((1R,5S)-3-thia-8-azabicyclo[3.2.1]octan-8-yl)-8-fluoro-1-oxo-3a,4-dihydro-1H,3H-benzo[b]oxazolo[3,4-d][1,4]oxazin-3-yl)methyl)acetamide]",235 to 236,,0.918,58.5,
CC(C)C(=O)NC[C@@H]1OC(=O)N2c3cc(F)c(N4C5CCC4CSC5)cc3OC[C@@H]12 [Compound 15],164 to 165,,,> 64,
"O=C(NC[C@@H]1OC(=O)N2c3cc(F)c(N4[C@@H]5CC[C@H]4CSC5)cc3OC[C@@H]12)C1CC1 [Compound 16, N-(((3S,3aS)-7-((1R,5S)-3-thia-8-azabicyclo[3.2.1]octan-8-yl)-8-fluoro-1-oxo-3a,4-dihydro-1H,3H-benzo[b]oxazolo[3,4-d][1,4]oxazin-3-yl)methyl)cyclopropanecarboxamide]",169 to 171,,0.976,> 64,
"O=C(NC[C@@H]1OC(=O)N2c3cc(F)c(N4[C@@H]5CC[C@H]4CSC5)cc3OC[C@@H]12)C1CCC1 [Compound 17, N-(((3S,3aS)-7-((1R,5S)-3-thia-8-azabicyclo[3.2.1]octan-8-yl)-8-fluoro-1-oxo-3a,4-dihydro-1H,3H-benzo[b]oxazolo[3,4-d][1,4]oxazin-3-yl)methyl)cyclobutanecarboxamide]",195 to 196,,0.974,34.7,
"COC(=O)NC[C@@H]1OC(=O)N2c3cc(F)c(N4[C@@H]5CC[C@H]4CSC5)cc3OC[C@@H]12 [Compound 18, Methyl (((3S,3aS)-7-((1R,5S)-3-thia-8-azabicyclo[3.2.1]octan-8-yl)-8-fluoro-1-oxo-3a,4-dihydro-1H,3H-benzo[b]oxazolo[3,4-d][1,4]oxazin-3-yl)methyl)carbamate]",149 to 151,,,> 64,
"O=C1O[C@@H](CNc2ccon2)[C@@H]2COc3cc(N4[C@@H]5CC[C@H]4CSC5)c(F)cc3N12 [Compound 19, (3S,3aS)-7-((1R,5S)-3-thia-8-azabicyclo[3.2.1]octan-8-yl)-8-fluoro-3-((isoxazol-3-ylamino)methyl)-3a,4-dihydro-1H,3H-benzo[b]oxazolo[3,4-d][1,4]oxazin-1-one]",180 to 182,,,> 64,
"O=C(NC[C@@H]1OC(=O)N2c3cc(F)c(N4[C@@H]5CC[C@H]4CSC5)cc3OC[C@@H]12)c1ccncc1 [Compound 20, N-(((3S,3aS)-7-((1R,5S)-3-thia-8-azabicyclo[3.2.1]octan-8-yl)-8-fluoro-1-oxo-3a,4-dihydro-1H,3H-benzo[b]oxazolo[3,4-d][1,4]oxazin-3-yl)methyl)isonicotinamide]",149 to 150,,,> 64,
"O=C1O[C@@H](Cn2ccnn2)[C@@H]2COc3cc(N4[C@@H]5CC[C@H]4CSC5)c(F)cc3N12 [Compound 22, (3S,3aS)-3-((1H-1,2,3-Triazol-1-yl)methyl)-7-((1R,5S)-3-thia-8-azabicyclo[3.2.1]octan-8-yl)-8-fluoro-3a,4-dihydro-1H,3H-benzo[b]oxazolo[3,4-d][1,4]oxazin-1-one]",225 to 227,,,> 64,
"CC(=O)NC[C@@H]1OC(=O)N2c3cc(F)c(N4CC5(COC5)C4)cc3OC[C@@H]12 [Compound 24, N-(((3S,3aS)-8-Fluoro-1-oxo-7-(2-oxa-6-azaspiro[3.3]heptan-6-yl)-3a,4-dihydro-1H,3H-benzo[b]oxazolo[3,4-d][1,4]oxazin-3-yl)methyl)acetamide]",105 to 107,> 64,,,
"O=C(NC[C@@H]1OC(=O)N2c3cc(F)c(N4CC5(COC5)C4)cc3OC[C@@H]12)C1CC1 [Compound 25, N-(((3S,3aS)-8-Fluoro-1-oxo-7-(2-oxa-6-azaspiro[3.3]heptan-6-yl)-3a,4-dihydro-1H,3H-benzo[b]oxazolo[3,4-d][1,4]oxazin-3-yl)methyl)cyclopropanecarboxamide]",181 to 183,> 64,,,
"O=C(NC[C@@H]1OC(=O)N2c3cc(F)c(N4CC5(COC5)C4)cc3OC[C@@H]12)C1CCC1 [Compound 26, N-(((3S,3aS)-8-Fluoro-1-oxo-7-(2-oxa-6-azaspiro[3.3]heptan-6-yl)-3a,4-dihydro-1H,3H-benzo[b]oxazolo[3,4-d][1,4]oxazin-3-yl)methyl)cyclobutanecarboxamide]",118 to 120,> 64,,,
"O=C1O[C@@H](Cn2ccnn2)[C@@H]2COc3cc(N4CC5(COC5)C4)c(F)cc3N12 [Compound 27, (3S,3aS)-3-((1H-1,2,3-Triazol-1-yl)methyl)-8-fluoro-7-(2-oxa-6-azaspiro[3.3]heptan-6-y 1)-3a,4-dihydro-1H,3H-benzo[b]oxazolo[3,4-d][1,4]oxazin-1-one]",219 to 221,> 64,,,
"COC(=O)NC[C@H]1OC(=O)N2c3cc(F)c(N4CCSCC4)cc3OC[C@H]12 [Compound 30, Methyl (((3R,3aR)-8-fluoro-1-oxo-7-thiomorpholino-3a,4-dihydro-1H,3H-benzo[b]oxazolo[3,4-d][l, 4]oxazin-3-yl)methyl)carbamate]",158 to 160,> 64,,,0.208
"CC(=O)NC[C@@H]1OC(=O)N2c3cc(F)c(N4CCC(F)(F)CC4)cc3OC[C@@H]12 [Compound 32, N-(((3S,3aS)-7-(4,4-Difluoropiperidin-1-yl)-8-fluoro-1-oxo-3a,4-dihydro-1H,3H-benzo[b]oxazolo[3,4-d][1,4]oxazin-3-yl)methyl)acetamide]",230 to 232,> 64,,,0.908
"O=C(NC[C@@H]1OC(=O)N2c3cc(F)c(N4CCSCC4)cc3OC[C@@H]12)C(F)F [Compound 33, 2,2-Difluoro-N-(((3S,3aS)-8-fluoro-1-oxo-7-thiomorpholino-3a,4-dihydro-1H,3H-benzo [b]oxazolo[3,4-d][1,4]oxazin-3-yl)methyl)acetamide]",200 to 202,61.6,,,0.1
